Test results: publication PMC11602115 (Journal of Medicinal Chemistry, 2017)
Where two headings read alike, the source gives them in different places.

Tests used:
monkey IP = test: Radioligand binding, monkey IP ([3H]-iloprost)
Protocol: CHO-K1 cells expressing recombinant IP receptors were harvested, washed with ice-cold phosphate buffered saline, pH 7.4 (PBS), and then centrifuged at 48 000g for 20 min at 4 °C. The resulting cell pellet was then resuspended in ice-cold PBS containing 20 mM HEPES, pH 7.4, and 0.1 mM EDTA, homogenized on ice using a Brinkman Polytron, and centrifuged (48 000g for 20 min at 4 °C). This resuspension and centrifugation process was repeated one further time. Crude membrane pellets were stored at −80 °C until used for radioligand binding assays.
Assay incubations were terminated by rapid filtration through PerkinElmer GF/C filtration plates pretreated with 0.3% PEI, under vacuum pressure using a 96-well Packard filtration apparatus, followed by multiple washes with ice-cold wash buffer (PBS containing 20 mM HEPES and 0.1 mM EDTA, pH 7.4). Plates were then dried at 45 °C for a minimum of 2 h. Finally, 25 μL of BetaScint scintillation cocktail was added to each well and plates were counted in a Packard TopCount scintillation counter. In each competition study, test compounds were dosed at 10 concentrations with triplicate determinations at each test concentration.

[1] = tested on: primary human pulmonary arterial smooth muscle cells; test: HTRF cAMP assay in primary human pulmonary arterial smooth muscle cells; assay type: cell-based
Protocol: Additional In Vitro Assays […]
Compounds were also evaluated in HTRF cAMP assays using primary human pulmonary arterial smooth muscle cells (Cell Applications, Inc., #352Kq05a, or ThermoFisher/Gibco, #C0095C) using the same basic assay protocol outlined in the Experimental section. Cells were cultured as recommended by the suppliers, used at low passage and seeded into 384qwell assay plates at a density of 700q900 cell per well

[2] = Stability in human microsome preparations; assay type: in vitro ADME; conditions: incubation at 37 °C, human microsomes; read-out: human MS, T1/2
Source text: (§1) Table 1 Screening Data for Selected Analogues ^a | column: human and rat MS, T1/2 (min) ^g

[3] = Stability in rat microsome preparations; assay type: in vitro ADME; conditions: incubation at 37 °C, rat microsomes; read-out: rat MS, T1/2
Source text: as §1

Rat PK (iv and oral) = assay type: in vivo; conditions: for AUC(0-inf) / bioavailability: Sprague-Dawley; for AUC(0-inf): after oral administration 10 mg/kg (5m 10.5); for bioavailability: po, 10 mg/kg; for unbound Cmax plasma concentration: single oral dose 30 mg/kg, based on 1% free fraction of the measured Cmax
CYP 2C9 = CYP 2C9 (Homo sapiens, UniProt P11712); test: Cytochrome P450 inhibition, CYP2C9; assay type: in vitro ADME
Sequence of CYP 2C9 (P11712 whole entry): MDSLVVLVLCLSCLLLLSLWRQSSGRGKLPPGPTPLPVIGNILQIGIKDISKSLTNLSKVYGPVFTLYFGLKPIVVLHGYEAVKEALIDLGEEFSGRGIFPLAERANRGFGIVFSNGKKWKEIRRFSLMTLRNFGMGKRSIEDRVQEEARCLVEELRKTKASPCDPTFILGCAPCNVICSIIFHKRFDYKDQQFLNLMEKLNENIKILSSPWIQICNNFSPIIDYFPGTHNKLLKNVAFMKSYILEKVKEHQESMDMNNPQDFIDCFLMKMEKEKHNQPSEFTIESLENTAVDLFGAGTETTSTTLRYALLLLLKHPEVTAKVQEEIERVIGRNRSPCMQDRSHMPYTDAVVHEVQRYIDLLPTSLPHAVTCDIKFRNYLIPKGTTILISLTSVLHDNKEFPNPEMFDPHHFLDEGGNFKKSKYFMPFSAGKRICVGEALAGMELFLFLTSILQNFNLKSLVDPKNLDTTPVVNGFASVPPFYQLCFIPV

MCT-induced PAH = test: Rat monocrotaline (MCT) model of PAH, preventative oral dosing; assay type: in vivo, male Sprague-Dawley rats; conditions: for inhibition of the MCT-induced increase in RV/(LV + S): oral, twice daily for 21 days, preventative mode
Protocol: Following anesthesia by intraperitoneal injection of 30 mg/kg pentobarbital, rats were given a subcutaneous injection of either 60 mg/kg MCT (Sigma, catalog no. C2401-1G) or 0.9% saline for the sham group. […] Hemodynamic measurements were performed with animals from the 30 mg/kg group (but not the 10 mg/kg group) anesthetized with 60 mg/kg pentobarbital. Under anesthesia, each animal was intubated with a rodent ventilator (Harvard Apparatus, model 683) at 70 breaths/min of a rate and a tidal volume of 2.5 mL in supine position on a heating pad set at 37 °C. A small opening in the apex of the right ventricle was made using a 23G needle, then a Millar catheter (Millar Instruments, Inc. model SPR-320) was placed into the right ventricle through the opening in the apex, then into the pulmonary artery (PA) for the pressure measurement. A second catheter was inserted through the […] for the measurement of mean arterial pressure. After stabilization, heart rate, mean arterial pressure, and systolic RV pressure were calculated from 20 consecutive heart beats in each rat.
The ventricles and lungs were excised and weighed. The ratio of RV weight to left ventricle plus septum (LV + S) was calculated as an index of right ventricular hypertrophy.
As the collection and preservation of the tissues are very resource intensive, 5 animals were selected from each group for measurement of vessel thickness; this was sufficient to obtain clear statistical differences between groups. Paraffin sections of 4 μm thickness were obtained from the lower region of the right lung and stained with hematoxylin/eosin. Analysis of the medial wall thickness of the pulmonary arterioles was performed. In brief, the external diameter and medial wall thickness were measured in 20 muscular arteries (25–100 μm external diameters) per lung section. For each artery, the medial wall thickness was expressed as follows: % wall thickness = [(external diameter – internal diameter)/external diameter] × 100. Each vessel was measured twice, perpendicularly along the long axis and short axis, and averages of both measurements were used.

Plasma protein binding = assay type: in vitro ADME; conditions: across all species
Mouse PK (iv and oral) = assay type: in vivo, male CD-1 mice
Dog PK (iv and oral) = assay type: in vivo, Beagle dogs
Monkey PK (iv and oral) = assay type: in vivo, cynomolgus monkeys
[4] = terminal half-life after iv 2 mg/kg (5m 2.1)
[5] = total clearance, iv 2 mg/kg (5m 2.1)
[6] = read-out: plasma protein binding

With `CC#CCC(C)[C@H](O)/C=C/[C@@H]1[C@H]2C/C(=C/CCCC(=O)O)C[C@H]2C[C@H]1O` (stereo partly shown) [iloprost] the Ki (monkey IP) was 1.6 nM, the “Efficacy (% vs. Iloprost) [95% CI], primary human PASMC cAMP” value [1] was 100% and the EC50 ([1]; Homo sapiens, PASMC, n = 8, read-out: EC50 [95% CI], primary human PASMC cAMP) was 2.9 nM.

For `O=C(O)COC[C@H]1CC[C@H](COC(=O)N(c2ccccc2)c2cccc(F)c2)CC1` [5g, 2-(((1r,4r)-4-(((3-Fluorophenyl)(phenyl)carbamoyloxy)methyl)cyclohexyl)methoxy)acetic Acid], the half-life [2] was over 1 h, the half-life [3] was over 1 h and the AUC(0-inf) (Rat PK (iv and oral); plasma) was 7900 ng·h/mL. It also gave a bioavailability (Rat PK (iv and oral); plasma) of 39%, a Cmax (Rat PK (iv and oral); po 10 mg/kg (5m 10.5)) of 3400 ng/mL and a Tmax (Rat PK (iv and oral); po 10 mg/kg (5m 10.5)) of 0.3 h. The “unbound Cmax plasma concentration” value (Rat PK (iv and oral)) was 300 nM, the T1/2 (Rat PK (iv and oral); [4]) was 3.4 h and the Clobs (Rat PK (iv and oral); [5]) was 1.2 L h^–1 kg^–1. For the same compound, the Ki (monkey IP) was 2.6 nM, the IC50 (CYP 2C9) was over 50000 nM and the “inhibition of the MCT-induced increase in RV/(LV + S)” value (MCT-induced PAH) was “dose-dependent inhibition”. The fraction unbound (Plasma protein binding; read-out: free fraction) was 0.01 and the fraction unbound (Plasma protein binding; [6]) was about 0.01.

Compound `O=C(O)COC[C@H]1CC[C@H](COC(=O)N(c2ccccc2)c2ccc(Cl)cc2)CC1` [5c, Sodium 2-(((1r,4r)-4-(((4-Chlorophenyl)(phenyl)carbamoyloxy)methyl)cyclohexyl)methoxy)acetate] has a half-life [2] of over 1 h, a half-life [3] of over 1 h and a half-life (Rat PK (iv and oral); CD-1 (mouse), Sprague-Dawley (rat), plasma, oral, rodents, read-out: elimination half-life in rodents) of 5 to 8 h. For the same compound, the AUC(0-inf) (Rat PK (iv and oral); plasma) was 14600 ng·h/mL, the bioavailability (Rat PK (iv and oral); plasma) was 57% and the “AUC0–inf” value (Rat PK (iv and oral); iv 2 mg/kg (Table 4)) was 5090 ± 1620 ng·h/mL. The Clobs (Rat PK (iv and oral); iv 2 mg/kg (Table 4)) was 0.427 ± 0.163 L h^–1 kg^–1, the T1/2 (Rat PK (iv and oral); iv 2 mg/kg (Table 4)) was 6.72 ± 0.98 h and the “unbound Cmax” value (Rat PK (iv and oral); oral 10 mg/kg, calculated from the PK experiment) was “around 100 nM”. It also gave a Cmax (Rat PK (iv and oral); po 10 mg/kg (5m 10.5)) of 3700 ng/mL, a Tmax (Rat PK (iv and oral); po 10 mg/kg (5m 10.5)) of 1.5 h and a Cmax (Rat PK (iv and oral); po 10.0 mg/kg (Table 4)) of 3700 ± 1340 ng/mL. The F (Rat PK (iv and oral); po 10.0 mg/kg (Table 4)) was 57.4%, the T1/2 (Rat PK (iv and oral); po 10.0 mg/kg (Table 4)) was 5.45 ± 1.52 h and the “unbound Cmax plasma concentration” value (Rat PK (iv and oral)) was 300 nM. The T1/2 (Rat PK (iv and oral); [4]) was 6.7 h, the Clobs (Rat PK (iv and oral); [5]) was 0.43 L h^–1 kg^–1 and the T1/2 (Mouse PK (iv and oral); iv […]) was 5.59 h. For the same compound, the “AUC0–inf” value (Mouse PK (iv and oral); po 9.49 mg/kg) was 11500 ng·h/mL, the Cmax (Mouse PK (iv and oral); po 9.49 mg/kg) was 4940 ng/mL and the F (Mouse PK (iv and oral); po 9.49 mg/kg) was 83.4%. For the same compound, the T1/2 (Mouse PK (iv and oral); po 9.49 mg/kg) was 8.08 h, the Tmax (Mouse PK (iv and oral); po 9.49 mg/kg) was 0.250 h and the half-life (Dog PK (iv and oral); beagle, plasma, oral, 0.2 mg/kg, read-out: elimination half-life in dog (converted)) was 10 h. The “AUC0–inf” value (Dog PK (iv and oral); iv 0.2 mg/kg) was 1050 ± 300 ng·h/mL, the Clobs (Dog PK (iv and oral); iv 0.2 mg/kg) was 0.202 ± 0.057 L h^–1 kg^–1 and the T1/2 (Dog PK (iv and oral); iv 0.2 mg/kg) was 3.54 ± 0.42 h. For the same compound, the “AUC0–inf” value (Dog PK (iv and oral); po 0.2 mg/kg) was 719 ± 290 ng·h/mL, the Cmax (Dog PK (iv and oral); po 0.2 mg/kg) was 327 ± 16 ng/mL and the F (Dog PK (iv and oral); po 0.2 mg/kg) was 68.4%. For the same compound, the T1/2 (Dog PK (iv and oral); po 0.2 mg/kg) was 9.79 ± 0.94 h, the Tmax (Dog PK (iv and oral); po 0.2 mg/kg) was 0.417 ± 0.144 h and the “AUC0–inf” value (Dog PK (iv and oral); po 2 mg/kg) was 9750 ± 5270 ng·h/mL. For the same compound, the Cmax (Dog PK (iv and oral); po 2 mg/kg) was 3440 ± 900 ng/mL, the F (Dog PK (iv and oral); po 2 mg/kg) was 92.9% and the T1/2 (Dog PK (iv and oral); po 2 mg/kg) was 5.53 ± 1.48 h. For the same compound, the Tmax (Dog PK (iv and oral); po 2 mg/kg) was 0.833 ± 0.289 h, the half-life (Monkey PK (iv and oral); cynomolgus monkey, plasma, oral, 0.1 mg/kg, read-out: elimination half-life in monkey (converted)) was 18 h and the “AUC0–inf” value (Monkey PK (iv and oral); monkey, iv 0.1 mg/kg) was 145 ± 95 ng·h/mL. The Clobs (Monkey PK (iv and oral); monkey, iv 0.1 mg/kg) was 0.881 ± 0.579 L h^–1 kg^–1, the T1/2 (Monkey PK (iv and oral); monkey, iv 0.1 mg/kg) was 24.2 ± 2.1 h and the “AUC0–inf” value (Monkey PK (iv and oral); monkey, po 0.1 mg/kg) was 161 ± 116 ng·h/mL. The Cmax (Monkey PK (iv and oral); monkey, po 0.1 mg/kg) was 12.1 ± 3.6 ng/mL, the F (Monkey PK (iv and oral); monkey, po 0.1 mg/kg) was 98.7% and the T1/2 (Monkey PK (iv and oral); monkey, po 0.1 mg/kg) was 17.5 ± 3.4 h. The Tmax (Monkey PK (iv and oral); monkey, po 0.1 mg/kg) was 2.67 ± 2.89 h, the “AUC0–inf” value (Monkey PK (iv and oral); monkey, po 0.5 mg/kg) was 2900 ± 1350 ng·h/mL and the Cmax (Monkey PK (iv and oral); monkey, po 0.5 mg/kg) was 92.8 ± 29.7 ng/mL. It also gave an F (Monkey PK (iv and oral); monkey, po 0.5 mg/kg) of over 100%, a T1/2 (Monkey PK (iv and oral); monkey, po 0.5 mg/kg) of 38.7 ± 21.3 h and a Tmax (Monkey PK (iv and oral); monkey, po 0.5 mg/kg) of 4.17 ± 3.18 h. The IC50 (CYP 2C9) was over 50000 nM, the “effect on hypertrophy (RV/(LV + S))” value (MCT-induced PAH; 10 mg/kg oral twice daily) was “did not show a statistically significant effect” and the “pulmonary vessel wall thickness” value (MCT-induced PAH; 30 mg/kg oral twice daily, 5 animals) was “significantly reduce”. The “MCT-induced increase in pulmonary arterial pressure (mPAP)” value (MCT-induced PAH; 30 mg/kg oral twice daily, subset of the test group (5 animals)) was “significantly reduce”, the “inhibition of the MCT-induced increase in RV/(LV + S)” value (MCT-induced PAH) was “dose-dependent inhibition” and the fraction unbound (Plasma protein binding; read-out: free fraction) was 0.01. For the same compound, the fraction unbound (Plasma protein binding; [6]) was about 0.01 and the “Efficacy (% vs. Iloprost) [95% CI], primary human PASMC cAMP” value [1] was 65 [55, 75] %.
